Results from paper PMC13080237, “Functional divergence of protein kinase A regulatory subunit Iβ variants: the importance of N3A motifs in PKA regulation” (The Febs Journal, 2025).
pKd: −log10 of the molar value.

Legend:
[1] = target: GFP2 fusion of human PKA Cα (BRET acceptor) (human) (UniProt P17612); experiment: FRET or BRET; BRET2 in living HEK293 cells; RLuc8 fused to the R subunit, GFP2 fused to the C subunit; 37 °C, HBSS w/o Mg2+/Ca2+ pH 7.4, coelenterazine 400a; time courses and end points (20 min); cells treated with buffer, 100 nM isoproterenol, or 50 uM forskolin + 100 uM IBMX
RIβ (RIβ A268; His-RIβ) [2] = target: T1, RIβ (RIβ A268; His-RIβ) (Homo sapiens, UniProt P31321, A268R); experiment: fluorescence polarization, direct titration; assay type: binding; settings: labelled compound; 0.5 nM 8-Fluo-cAMP, RIβ R268 dilution series; 20 mM MOPS pH 7.4, 150 mM NaCl, room temperature; residue 268 in bovine RIα numbering (270 in human RIβ); read-out: affinity
T1 construct: gene PRKAR1B; full-length, N-terminal His-tag (pQTEV vector), E. coli TP2000 cells, Ni-NTA; dimer; 380 residues as printed

RIβ (RIβ A268; His-RIβ) [3] = target: T2, RIβ (RIβ A268; His-RIβ) (Homo sapiens, UniProt P31321); experiment: fluorescence polarization, direct titration; assay type: binding; settings: labelled compound; 0.5 nM 8-Fluo-cAMP, RIβ dilution series; 20 mM MOPS pH 7.4, 150 mM NaCl, room temperature; read-out: affinity
T2 construct: gene PRKAR1B; full-length, N-terminal His-tag (pQTEV vector), E. coli TP2000 cells, Ni-NTA; dimer; 380 residues as printed
T2 sequence (P31321 2-381): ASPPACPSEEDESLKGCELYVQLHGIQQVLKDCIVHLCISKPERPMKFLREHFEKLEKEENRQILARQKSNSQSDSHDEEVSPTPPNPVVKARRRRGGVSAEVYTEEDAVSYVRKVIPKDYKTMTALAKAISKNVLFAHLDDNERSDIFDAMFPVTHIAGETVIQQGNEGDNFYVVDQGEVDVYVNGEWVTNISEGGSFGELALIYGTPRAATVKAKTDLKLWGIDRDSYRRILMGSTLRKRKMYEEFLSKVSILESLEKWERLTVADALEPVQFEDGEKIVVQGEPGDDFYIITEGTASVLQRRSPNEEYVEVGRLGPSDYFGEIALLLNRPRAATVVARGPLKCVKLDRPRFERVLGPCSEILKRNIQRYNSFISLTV

T1 sequence (P31321 2-381 A268R): as the sequence (P31321 2-381) above, with A267R counted along it

Substance	maximal cAMP-induced dissociation of the holoenzyme (%) [1] [%]	pKd (RIβ (RIβ A268; His-RIβ) [2])	pKd (RIβ (RIβ A268; His-RIβ) [3])
RLuc8 fusion of human RIβ R268 (BRET donor) (natural protein)	30		
8‐(2‐[fluoresceinyl]aminoethylthio)‐cAMP [8-Fluo-cAMP]		8.40	8.40
